This note sets out measurements from ChEMBL document CHEMBL1201862, “PubChem BioAssay data set” (2004).

Several values for one entry are separate records, joined by “and”; a condition that tells them apart may be missing. Equal values may be shown once.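 Growth conditions: 96-well plates. Treatment: test compound, 48 hours, 5 concentrations. Analysis: linear interpolation between bracketing concentrations; unreached endpoints set to highest concentration. GI50 is the concentration that inhibits growth by half.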 Activity calls are given as the source filed them. No stated cut-off is given here; in the data, active = GI50 up to about 1.1 µM and inactive = higher. Where a SMILES comes first, the peptide text is derived from it. [ ]: non-standard residue; d: D form. 2Nal = N[CH](Cc1ccc2ccccc2c1)C(=O)O

Among the test systems are HOP-92; PC-3; UACC-257; NCI-H23; SK-MEL-2; Hs-578T; NCI/ADR-RES; HOP-62; KM12; EKVX; OVCAR-8; OVCAR-3; MOLT-4; SR; NCI-H522; K562; A498; HL-60; MDA-N.
Holding throughout (test): DTP human tumour cell line panel, 48 h

With `Cc1sc2nc(-c3cc([N+](=O)[O-])c(Cl)cc3Cl)c(/C=N/NC(=N)N)n2c1C`, the GI50 was 7.13 µM (inactive) in the assay with HOP-92; 5.69 µM (inactive) in the assay on PC-3; 10 µM (inactive) in the assay on UACC-257; 4.08 µM (inactive) with NCI-H23; 1.97 µM (inactive) in the assay with SK-MEL-2; 16.7 µM (inactive) with Hs-578T. In addition, the GI50 was 31.7 µM (inactive) in the assay on NCI/ADR-RES; 7.66 µM (inactive) in the assay on HOP-62; 3.63 µM (inactive) in the assay on KM12; 19.8 µM (inactive) in the assay on EKVX; 5.7 µM (inactive) in the assay on OVCAR-8; 4.06 µM (inactive) in the assay on OVCAR-3. Also, the GI50 in the assay on MOLT-4 is 1.62 µM (inactive); in the assay on SR, 0.411 µM (active); in the assay on NCI-H522, 8.47 µM (inactive); in the assay with K562, 3.06 µM (inactive); in the assay on A498 it was 19.5 µM (inactive).
Turning to `O=C1N(CN2CCOCC2)CN(CN2CCOCC2)C(=O)N1Cc1ccc(-c2ccc(CN3C(=O)N(CN4CCOCC4)CN(CN4CCOCC4)C3=O)cc2)cc1`, the GI50 with HOP-92 is 9.46 µM (inactive); with PC-3 it was 20.8 µM (inactive); in the assay on UACC-257 it was 13.8 µM (inactive); with NCI-H23, 10.6 µM (inactive); in the assay with SK-MEL-2 it was 6.55 µM (inactive); with Hs-578T it was 26.2 µM (inactive). Besides, the GI50 with NCI/ADR-RES was 17.3 µM (inactive); in the assay with HOP-62, 21.6 µM (inactive); in the assay on KM12 it was 4.73 µM (inactive); with EKVX, 21.7 µM (inactive); in the assay with OVCAR-8, 20.5 µM (inactive); in the assay on OVCAR-3, 7.78 µM (inactive). Further, the GI50 was 4.19 µM (inactive) in the assay on MOLT-4; 2.08 µM (inactive) in the assay with SR; 12.2 µM (inactive) in the assay with NCI-H522; 3.75 µM (inactive) in the assay on K562; 15.3 µM (inactive) in the assay with A498.
For `CCOc1ccc(NC(=O)/C(=N\N)C(C(=O)OC)c2nc3ccc(Cl)cc3nc2O)cc1` (configuration not stated), the GI50 in the assay on HOP-92, with PC-3, in the assay on UACC-257, with NCI-H23, in the assay on SK-MEL-2 and in the assay with Hs-578T was > 100 µM (inactive) throughout. The GI50 is > 100 µM (inactive) in the assay with NCI/ADR-RES; > 100 µM (inactive) in the assay with HOP-62; > 100 µM (inactive) in the assay on KM12; 33 µM (inactive) in the assay on EKVX; > 100 µM (inactive) in the assay on HL-60; > 100 µM (inactive) in the assay with OVCAR-8. In addition, the GI50 with OVCAR-3 is > 100 µM (inactive); in the assay on SR, 21.7 µM (inactive); in the assay with NCI-H522, > 100 µM (inactive); in the assay with A498, > 100 µM (inactive).
As to `N#CC(C(=O)CCCC(=O)Nc1ccc(Cl)cc1Cl)c1ccccc1` (configuration not stated), the GI50 with HOP-92, in the assay with UACC-257, in the assay on NCI-H23, in the assay with SK-MEL-2, with HOP-62 and with KM12 was > 100 µM (inactive) in each case. The GI50 with EKVX, in the assay with HL-60, with OVCAR-8, in the assay with OVCAR-3, in the assay on MOLT-4 and in the assay on SR was > 100 µM (inactive) each time. In addition, the GI50 in the assay with K562 is > 100 µM (inactive).
Take `CC1OC(OC2C(OC(=O)[C@]34CCC(C)(C)C[C@H]3C3=CC[C@@H]5[C@@]6(C)CC[C@H](OC7OC(C(=O)O)C(O)C(O)C7O)C(C)(C)[C@@H]6CC[C@@]5(C)[C@]3(C)C[C@H]4O)OCC(O)C2O)C(O)C(O)C1OC1OCC(O)C(O)C1O` (some centres not stated): the GI50 with HOP-92 is 13.8 µM (inactive) and 11.2 µM (inactive); with UACC-257 it was 16.8 µM (inactive) and 16.4 µM (inactive); in the assay with NCI-H23, 5.31 µM (inactive) and 6.5 µM (inactive); in the assay on Hs-578T, 19.8 µM (inactive) and 21.3 µM (inactive); in the assay with MDA-N, 10.6 µM (inactive) and 13.8 µM (inactive); with HOP-62 it was 17.7 µM (inactive) and 14.4 µM (inactive). The GI50 with HL-60 is 8.93 µM (inactive); in the assay with OVCAR-3 it was 15.3 µM (inactive) and 17.7 µM (inactive); in the assay on MOLT-4, 16 µM (inactive) and 27 µM (inactive); in the assay on SR it was 7.55 µM (inactive) and 6.01 µM (inactive); with NCI-H522 it was 10.2 µM (inactive) and 6.21 µM (inactive); in the assay on K562, 16.4 µM (inactive) and 14.6 µM (inactive). In addition, the GI50 in the assay with A498 is 2.54 µM (inactive) and 1.72 µM (inactive).
With `NC1=Nc2ccccc2Sc2cccc(F)c21`, the GI50 was > 100 µM (inactive) with HOP-92; 63.5 µM (inactive) with PC-3; 46.3 µM (inactive) with UACC-257; 48.6 µM (inactive) in the assay on NCI-H23; > 100 µM (inactive) with SK-MEL-2; 46.1 µM (inactive) in the assay with MDA-N. Further, the GI50 in the assay on NCI/ADR-RES is 43.7 µM (inactive); in the assay on HOP-62 it was > 100 µM (inactive); in the assay with KM12 it was 97.7 µM (inactive); in the assay on EKVX, 50.9 µM (inactive); with HL-60 it was 24 µM (inactive); with OVCAR-8 it was > 100 µM (inactive). The GI50 is 44 µM (inactive) in the assay on OVCAR-3; 37.8 µM (inactive) in the assay on MOLT-4; 35.1 µM (inactive) in the assay on SR; 64.4 µM (inactive) in the assay on NCI-H522; 37.2 µM (inactive) in the assay on K562; 34.4 µM (inactive) with A498.
On to `COc1cc2c(/C=C3/C(=O)Nc4ccc(O)cc43)c(Cl)n(Cc3ccccc3)c2cc1C`, for which the GI50 with HOP-92 was 12.8 µM (inactive); in the assay on PC-3 it was 0.897 µM (active); in the assay on UACC-257, 0.818 µM (active); in the assay on NCI-H23, 0.618 µM (active); in the assay on SK-MEL-2, 3.73 µM (inactive); with Hs-578T, 0.354 µM (active). The GI50 with NCI/ADR-RES is 0.574 µM (active); in the assay with KM12, 0.265 µM (active); with EKVX, 5.62 µM (inactive); in the assay on HL-60, 0.306 µM (active); with OVCAR-8, 1.43 µM (inactive); in the assay with OVCAR-3 it was 0.234 µM (active). In addition, the GI50 in the assay on MOLT-4 was 1.13 µM (inactive); with SR, 0.356 µM (active); in the assay on NCI-H522, 1.22 µM (inactive); with K562, 0.583 µM (active).
With `COc1cccc2c1C(=O)c1c(O)c3c(c(O)c1C2=O)C[C@H](O)C[C@@H]3OC1CC(N)C(O)C(C)O1` (some centres not stated), the GI50 with HOP-92 is 2 µM (inactive); in the assay with PC-3, 2.09 µM (inactive); in the assay with UACC-257, 1.58 µM (inactive); in the assay with NCI-H23 it was 1.06 µM (active); with SK-MEL-2, 2.02 µM (inactive); in the assay on Hs-578T, 0.802 µM (active). For the same compound, the GI50 with NCI/ADR-RES is 13.4 µM (inactive); with HOP-62, 1.49 µM (inactive); in the assay with KM12 it was 0.811 µM (active); in the assay with EKVX it was 5.21 µM (inactive); in the assay with OVCAR-8 it was 1.05 µM (active); with OVCAR-3, 1.85 µM (inactive). Further, the GI50 in the assay on MOLT-4 is < 0.01 µM (active); with SR it was < 0.01 µM (active); with NCI-H522, 1.57 µM (inactive); with K562, 1.79 µM (inactive); in the assay on A498, < 0.01 µM (active).
Consider `COC(CN1C=C(Sc2ccccc2)CC1)OC`, for which the GI50 with HOP-92 is 26.9 µM (inactive); with UACC-257, 34.8 µM (inactive); in the assay on NCI-H23, 23.7 µM (inactive); with SK-MEL-2, 19.4 µM (inactive); with HOP-62 it was 47.3 µM (inactive); with KM12, 23.8 µM (inactive). Besides, the GI50 is 43.3 µM (inactive) in the assay on EKVX; 15.6 µM (inactive) in the assay on HL-60; 29.6 µM (inactive) in the assay on OVCAR-8; 20.2 µM (inactive) with OVCAR-3; 27.2 µM (inactive) in the assay with MOLT-4; 20.7 µM (inactive) in the assay with K562. Further, the GI50 with A498 was 48.2 µM (inactive).
For the compound `CC1(C)CCC2(C(=O)OC3OC(CO)C(O)C(O)C3O)CCC3(C)C(=CCC4C5(C)CCC(OC6OC(CO)C(O)C(O)C6O)C(C)(C)C5CCC43C)C2C1` (configuration not stated), the GI50 in the assay on HOP-92 was 7.74 µM (inactive); in the assay on PC-3 it was 13.6 µM (inactive); in the assay with UACC-257, 16.9 µM (inactive); in the assay on NCI-H23, 11.9 µM (inactive); in the assay with SK-MEL-2, 5.45 µM (inactive); with Hs-578T it was 10.7 µM (inactive). Also, the GI50 was > 25 µM (inactive) in the assay with HOP-62; 6.5 µM (inactive) with KM12; > 25 µM (inactive) with EKVX; 4.41 µM (inactive) with HL-60; 15.8 µM (inactive) with OVCAR-8; > 25 µM (inactive) in the assay on OVCAR-3. For the same compound, the GI50 is 7.26 µM (inactive) in the assay on MOLT-4; 3.89 µM (inactive) in the assay with SR; 5.36 µM (inactive) in the assay with NCI-H522; 9.04 µM (inactive) with K562; > 25 µM (inactive) in the assay on A498.
Consider `CC(NC(=O)C(N)Cc1ccccc1)C(=O)NC(Cc1ccc(O)cc1)C(=O)NC(Cc1c[nH]c2ccccc12)C(=O)NC(CCCCN)C(=O)NC(C(=O)NC(C)C(=O)NC(Cc1ccc2ccccc2c1)C(N)=O)C(C)C` (configuration not stated) (H-FAYWKVA[2Nal]-NH2; configuration not given here), for which the GI50 in the assay with PC-3, with UACC-257, in the assay with NCI-H23, with SK-MEL-2, with Hs-578T and in the assay with NCI/ADR-RES was > 12.5 µM (inactive) in each case. For the same compound, the GI50 in the assay with HOP-62, with KM12, in the assay with EKVX, in the assay on HL-60, in the assay with OVCAR-8 and in the assay on OVCAR-3 was > 12.5 µM (inactive) in each case. Also, the GI50 with NCI-H522, in the assay with K562 and in the assay on A498 was > 12.5 µM (inactive) throughout.

What is called GI50 is the concentration giving 50% growth inhibition.
